Test results published in US6737383B1, “Herbicidal oxadiazolidines” (priority 1999, dated 2004).

Tests used:
corn = experiment: Test B pre/postemergence corn; format: in vivo, Zea mays; settings: for Corn plant response rating: scale of 0 to 10 where 0 is no effect and 10 is complete control
Procedure, shortened: (§1)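 Herbicidal effect was estimated by eye on a ten-point control scale after plants spent twelve to sixteen days in a greenhouse following soil or foliar treatment. Foliar sprays targeted plants at one to four leaves; all doses were formulated in a non-phytotoxic solvent with surfactant.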

purple nutsedge = experiment: Test B pre/postemergence purple nutsedge; format: in vivo, Cyperus rotundus; settings: for Nutsedge plant response rating: scale of 0 to 10 where 0 is no effect and 10 is complete control
Procedure, shortened: as §1

duck salad = experiment: Test B flood test duck salad; format: in vivo, Heteranthera limosa
Procedure, shortened: (§2)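 Each value is a visual injury score relative to controls, with 10 meaning complete control and 0 no effect. Evaluation took place twelve to sixteen days after the 2-leaf-stage plants were treated and kept in the greenhouse.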

surinam grass = experiment: Test B pre/postemergence surinam grass; format: in vivo, Brachiaria decumbens; settings: for B. signalgrass plant response rating: scale of 0 to 10 where 0 is no effect and 10 is complete control
Procedure, shortened: as §1

giant foxtail = experiment: Test B pre/postemergence giant foxtail; format: in vivo, Setaria faberii; settings: for Giant foxtail plant response rating: scale of 0 to 10 where 0 is no effect and 10 is complete control
Procedure, shortened: as §1

velvetleaf = experiment: Test B pre/postemergence velvetleaf; format: in vivo, Abutilon theophrasti; settings: for Velvetleaf plant response rating: scale of 0 to 10 where 0 is no effect and 10 is complete control
Procedure, shortened: as §1

bamyardgrass = experiment: Test B flood test barnyardgrass; format: in vivo, Echinochloa crus-galli
Procedure, shortened: as §2

morningglory = experiment: Test B pre/postemergence morningglory; format: in vivo, Ipomoea hederacea; settings: for Morningglory plant response rating: scale of 0 to 10 where 0 is no effect and 10 is complete control
Procedure, shortened: as §1

rape = experiment: Test B pre/postemergence rape; format: in vivo, Brassica napus; settings: for Rape plant response rating: scale of 0 to 10 where 0 is no effect and 10 is complete control
Procedure, shortened: as §1

blackgrass = experiment: Test B pre/postemergence blackgrass; format: in vivo, Alopecurus myosuroides; settings: for Blackgrass plant response rating: scale of 0 to 10 where 0 is no effect and 10 is complete control
Procedure, shortened: as §1

sugar beet = experiment: Test B pre/postemergence sugar beet; format: in vivo, Beta vulgaris; settings: for Sugarbeets plant response rating: scale of 0 to 10 where 0 is no effect and 10 is complete control
Procedure, shortened: as §1

pigweed = experiment: Test B pre/postemergence pigweed; format: in vivo, Amaranthus retroflexus; settings: for Redroot pigweed plant response rating: scale of 0 to 10 where 0 is no effect and 10 is complete control
Procedure, shortened: as §1

smallflower flatsedge = experiment: Test B flood test smallflower flatsedge; format: in vivo, Cyperus difformis
Procedure, shortened: as §2

soybean = experiment: Test B pre/postemergence soybean; format: in vivo, Glycine max; settings: for Soybean plant response rating: scale of 0 to 10 where 0 is no effect and 10 is complete control
Procedure, shortened: as §1

rice = experiment: Test B flood test rice; format: in vivo, Oryza sativa
Procedure, shortened: as §2

bedstraw = experiment: Test B pre/postemergence bedstraw; format: in vivo, Galium aparine; settings: Preemergence
Procedure, shortened: as §1

[1] = Postemergence, Rate 125 g/ha, scale 0 to 10, 0 is no effect, 10 is complete control
[2] = Postemergence, Rate 250 g/ha, scale 0 to 10, 0 is no effect, 10 is complete control
[3] = Preemergence, Rate 62 g/ha, scale 0 to 10 (0 no effect, 10 complete control)
[4] = Rate 500 g/ha, Postemergence, scale 0 to 10, 0 no effect, 10 complete control
[5] = Rate 62 g/ha, flood test species, Pre-emergence, visual evaluation after twelve to sixteen days
[6] = Rate 125 g/ha, under heading Pre-emergence, flood test species, visual evaluation after twelve to sixteen days
[7] = Rate 250 g/ha, Pre-emergence, flood-test species, scale 0 to 10, 0 is no effect, 10 is complete control
[8] = Rate 500 g/ha, Pre-emergence, flood test species, scale 0 to 10 (0 no effect, 10 complete control)

Cc1nsc(Cl)c1Cn1c(=O)on(C(=O)N(c2ccc(F)cc2)C(C)C)c1=O [Compound 373]
Plant response rating, Corn (corn; [1]): 0
Plant response rating, Corn (corn; [2]): 0
Plant response rating, Corn (corn; [3]): 0
Corn plant response rating (0 to 10 scale) (corn; Preemergence, Rate 125 g/ha): 0
Corn plant response rating (corn; Preemergence, Rate 250 g/ha): 3
Corn plant response rating (corn; Preemergence, Rate 500 g/ha): 3
Corn plant response rating (corn; Rate 62 g/ha, Postemergence): 0
Plant response rating, Corn (corn; [4]): 0
Plant response rating, Nutsedge (purple nutsedge; [1]): 0
Plant response rating, Nutsedge (purple nutsedge; [2]): 0
Plant response rating, Nutsedge (purple nutsedge; [3]): 0
Nutsedge plant response rating (0 to 10 scale) (purple nutsedge; Preemergence, Rate 125 g/ha): 0
Nutsedge plant response rating (purple nutsedge; Preemergence, Rate 250 g/ha): 0
Nutsedge plant response rating (purple nutsedge; Preemergence, Rate 500 g/ha): 0
Nutsedge plant response rating (purple nutsedge; Rate 62 g/ha, Postemergence): 0
Plant response rating, Nutsedge (purple nutsedge; [4]): 0
Plant response rating, Ducksalad (0 to 10 scale, 0 is no effect, 10 is complete control) (duck salad; [5]): 0
Ducksalad plant response rating (0 to 10 scale, 0 is no effect, 10 is complete control) (duck salad; [6]): 0
Ducksalad plant response rating (duck salad; [7]): 0
Ducksalad plant response rating (duck salad; [8]): 0
Plant response rating, B. signalgrass (surinam grass; [1]): 0
Plant response rating, B. signalgrass (surinam grass; [2]): 0
Plant response rating, B. signalgrass (surinam grass; [3]): 0
B. signalgrass plant response rating (0 to 10 scale, 0 is no effect, 10 is complete control) (surinam grass; Preemergence, Rate 125 g/ha): 0
B. signalgrass plant response rating (surinam grass; Preemergence, Rate 250 g/ha): 0
B. signalgrass plant response rating (surinam grass; Preemergence, Rate 500 g/ha): 2
B. signalgrass plant response rating (surinam grass; Rate 62 g/ha, Postemergence): 0
Plant response rating, B. signalgrass (surinam grass; [4]): 0
Plant response rating, Giant foxtail (giant foxtail; [1]): 3
Plant response rating, Giant foxtail (giant foxtail; [2]): 3
Plant response rating, Giant foxtail (giant foxtail; [3]): 8
Giant foxtail plant response rating (0 to 10 scale) (giant foxtail; Preemergence, Rate 125 g/ha): 8
Giant foxtail plant response rating (giant foxtail; Preemergence, Rate 250 g/ha): 10
Giant foxtail plant response rating (giant foxtail; Preemergence, Rate 500 g/ha): 10
Giant foxtail plant response rating (giant foxtail; Rate 62 g/ha, Postemergence): 0
Plant response rating, Giant foxtail (giant foxtail; [4]): 6
Plant response rating, Velvetleaf (velvetleaf; [1]): 0
Plant response rating, Velvetleaf (velvetleaf; [2]): 1
Plant response rating, Velvetleaf (velvetleaf; [3]): 0
Velvetleaf plant response rating (0 to 10 scale) (velvetleaf; Preemergence, Rate 125 g/ha): 0
Velvetleaf plant response rating (velvetleaf; Preemergence, Rate 250 g/ha): 0
Velvetleaf plant response rating (velvetleaf; Preemergence, Rate 500 g/ha): 0
Velvetleaf plant response rating (velvetleaf; Rate 62 g/ha, Postemergence): 0
Plant response rating, Velvetleaf (velvetleaf; [4]): 2
Plant response rating, Barnyardgrass (0 to 10 scale, 0 is no effect, 10 is complete control) (bamyardgrass; [5]): 0
Barnyardgrass plant response rating (0 to 10 scale, 0 is no effect, 10 is complete control) (bamyardgrass; [6]): 0
Barnyardgrass plant response rating (bamyardgrass; [7]): 0
Barnyardgrass plant response rating (bamyardgrass; [8]): 0
Plant response rating, Morningglory (morningglory; [1]): 8
Plant response rating, Morningglory (morningglory; [2]): 8
Plant response rating, Morningglory (morningglory; [3]): 0
Morningglory plant response rating (0 to 10 scale) (morningglory; Preemergence, Rate 125 g/ha): 0
Morningglory plant response rating (morningglory; Preemergence, Rate 250 g/ha): 0
Morningglory plant response rating (morningglory; Preemergence, Rate 500 g/ha): 1
Morningglory plant response rating (morningglory; Rate 62 g/ha, Postemergence): 8
Plant response rating, Morningglory (morningglory; [4]): 8
Plant response rating, Rape (rape; [1]): 1
Plant response rating, Rape (rape; [2]): 2
Plant response rating, Rape (rape; [3]): 0
Rape plant response rating (0 to 10 scale) (rape; Preemergence, Rate 125 g/ha): 0
Rape plant response rating (rape; Preemergence, Rate 250 g/ha): 0
Rape plant response rating (rape; Rate 62 g/ha, Postemergence): 0
Plant response rating, Rape (rape; [4]): 5
Plant response rating, Blackgrass (blackgrass; [1]): 0
Plant response rating, Blackgrass (blackgrass; [2]): 0
Plant response rating, Blackgrass (blackgrass; [3]): 1
Blackgrass plant response rating (0 to 10 scale) (blackgrass; Preemergence, Rate 125 g/ha): 3
Blackgrass plant response rating (blackgrass; Preemergence, Rate 250 g/ha): 5
Blackgrass plant response rating (blackgrass; Preemergence, Rate 500 g/ha): 7
Blackgrass plant response rating (blackgrass; Rate 62 g/ha, Postemergence): 0
Plant response rating, Blackgrass (blackgrass; [4]): 0
Plant response rating, Sugarbeets (sugar beet; [1]): 0
Plant response rating, Sugarbeets (sugar beet; [2]): 1
Plant response rating, Sugarbeets (sugar beet; [3]): 0
Sugarbeets plant response rating (0 to 10 scale) (sugar beet; Preemergence, Rate 125 g/ha): 0
Sugarbeets plant response rating (sugar beet; Preemergence, Rate 250 g/ha): 4
Sugarbeets plant response rating (sugar beet; Preemergence, Rate 500 g/ha): 7
Sugarbeets plant response rating (sugar beet; Rate 62 g/ha, Postemergence): 0
Plant response rating, Sugarbeets (sugar beet; [4]): 4
Plant response rating, Redroot pigweed (pigweed; [1]): 3
Plant response rating, Redroot pigweed (pigweed; [2]): 4
Plant response rating, Redroot pigweed (pigweed; [3]): 0
Redroot pigweed plant response rating (0 to 10 scale) (pigweed; Preemergence, Rate 125 g/ha): 3
Redroot pigweed plant response rating (pigweed; Preemergence, Rate 250 g/ha): 7
Redroot pigweed plant response rating (pigweed; Preemergence, Rate 500 g/ha): 10
Redroot pigweed plant response rating (pigweed; Rate 62 g/ha, Postemergence): 2
Plant response rating, Redroot pigweed (pigweed; [4]): 6
Plant response rating, S. Flatsedge (0 to 10 scale, 0 is no effect, 10 is complete control) (smallflower flatsedge; [5]): 0
S. Flatsedge plant response rating (0 to 10 scale, 0 is no effect, 10 is complete control) (smallflower flatsedge; [6]): 0
S. Flatsedge plant response rating (smallflower flatsedge; [7]): 0
S. Flatsedge plant response rating (smallflower flatsedge; [8]): 0
Plant response rating, Soybean (soybean; [1]): 3
Plant response rating, Soybean (soybean; [2]): 4
Plant response rating, Soybean (soybean; [3]): 0
Soybean plant response rating (0 to 10 scale) (soybean; Preemergence, Rate 125 g/ha): 0
Soybean plant response rating (soybean; Preemergence, Rate 250 g/ha): 0
Soybean plant response rating (soybean; Preemergence, Rate 500 g/ha): 2
Soybean plant response rating (soybean; Rate 62 g/ha, Postemergence): 3
Plant response rating, Soybean (soybean; [4]): 4
Plant response rating, Rice (0 to 10 scale, 0 is no effect, 10 is complete control) (rice; [5]): 0
Rice plant response rating (0 to 10 scale, 0 is no effect, 10 is complete control) (rice; [6]): 0
Rice plant response rating (rice; [7]): 0
Rice plant response rating (rice; [8]): 0
Plant response rating, Bedstraw (bedstraw; Rate 62 g/ha, scale 0 to 10 (0 no effect, 10 complete control)): 0
Bedstraw plant response rating (0 to 10 scale) (bedstraw; Rate 125 g/ha): 0
Bedstraw plant response rating (bedstraw; Rate 500 g/ha, scale of 0 to 10 where 0 is no effect and 10 is complete control): 0
